From patent US20230143612A1 (Arbutus Biopharma Corporation, priority 2020, published 2023) come the findings set out here.

Sequence of PD-L1 His protein / PD-1 Fc protein (Q9NZQ7 19-238 limits assumed): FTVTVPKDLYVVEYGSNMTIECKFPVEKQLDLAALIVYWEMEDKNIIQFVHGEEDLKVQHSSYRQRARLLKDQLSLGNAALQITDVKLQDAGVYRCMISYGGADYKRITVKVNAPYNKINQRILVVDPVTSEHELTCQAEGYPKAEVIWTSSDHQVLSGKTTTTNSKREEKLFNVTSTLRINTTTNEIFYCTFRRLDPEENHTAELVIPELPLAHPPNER

The test deals with PD-L1 His protein / PD-1 Fc protein (Homo sapiens, UniProt Q9NZQ7). The test is described as follows: HTRF Assay (PD-1/PD-L1 interaction). It counts as binding. As to conditions: PD-L1 His 6 nM, PD-1 Fc 6 nM. In outline:
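HTRF: PD-L1 His (6 nM final), compound (3-fold dilutions, 20 μM to 0.001 μM final) and PD-1 Fc (6 nM final) preincubated 15 min at room temperature. Anti-human IgG-XL665 and anti-6HIS Tb cryptate (mixed at 6.7 nM and 0.35 nM) then added for 1 h at room temperature before reading.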
(In TR-FRET formats the signal depends on donor and acceptor labels being close together.)
The term IC50 denotes the point on the concentration scale where inhibition reaches its midpoint. Higher therefore signals weaker potency in that assay. Regarding `COc1nc(-c2cccc(-c3cccc(-c4ccn5c(=O)c(CNCCN6CCNC(=O)C6)cnc5c4)c3Cl)c2Cl)ccc1CNC[C@@H]1CCC(=O)N1` [Example 264, (S)-8-(2,2′-dichloro-3′-(6-methoxy-5-((((5-oxopyrrolidin-2-yl)methyl)-amino)-methyl)-pyridin-2-yl)-[1,1′-biphenyl]-3-yl)-3-(((2-(3-oxopiperazin-1-yl)ethyl)amino)methyl)-4H-pyrido[1,2-a]pyrimidin-4-one], the IC50 amounted to 0.1 nM. This lies in the sub-nanomolar range.

Consider `COC(=O)[C@H]1CCN(Cc2c(C)nc3cc(-c4cccc(-c5cccc(-c6ccc(CNC[C@@H]7CCC(=O)N7)c(OC)n6)c5Cl)c4Cl)ccn3c2=O)C1` [Example 265, (S)-Methyl 1-((8-(2,2′-dichloro-3′-(6-methoxy-5-(((((S)-5-oxopyrrolidin-2-yl)methyl)amino)methyl)pyridin-2-yl)-[1,1′-biphenyl]-3-yl)-2-methyl-4-oxo-4H-pyrido[1,2-a]pyrimidin-3-yl)methyl)pyrrolidine-3-carboxylate], for which the half-maximal inhibitory concentration (IC50) is 0.7 nM.

In turn, `COc1nc(-c2cccc(-c3cccc(-c4ccn5c(=O)c(CNCCN6CCS(=O)(=O)CC6)cnc5c4)c3Cl)c2Cl)ccc1CNC[C@@H]1CCC(=O)N1` [Example 266, (S)-8-(2,2′-dichloro-3′-(6-methoxy-5-((((5-oxopyrrolidin-2-yl)methyl)-amino)methyl)-pyridin-2-yl)-[1,1′-biphenyl]-3-yl)-3-(((2-(1,1-dioxidothiomorpholino)-ethyl)-amino)-methyl)-4H-pyrido[1,2-a]pyrimidin-4-one] registered an IC50 of 17.2 nM.

For the molecule `COc1nc(-c2cccc(-c3cccc(-c4ccc5c(n4)OCCN(CCO)C5)c3Cl)c2Cl)ccc1CNC[C@@H]1CCC(=O)N1` [Example 267, (S)-5-((((6-(2,2′-Dichloro-3′-(4-(2-hydroxyethyl)-2,3,4,5-tetrahydropyrido[3,2-f][1,4]oxazepin-8-yl)-[1,1′-biphenyl]-3-yl)-2-methoxypyridin-3-yl)methyl)amino)methyl)pyrrolidin-2-one], the half-maximal inhibitory concentration (IC50) was 0.2 nM.

`O=C1CC[C@@H](CNCc2cnc3cc(-c4cccc(-c5cccc(-c6ccc7c(n6)OCCN(CCO)C7)c5Cl)c4Cl)ccn3c2=O)N1` [Example 268, (S)-8-(2,2′-Dichloro-3′-(4-(2-hydroxyethyl)-2,3,4,5-tetrahydropyrido[3,2-f][1,4]oxazepin-8-yl)-[1,1′-biphenyl]-3-yl)-3-((((5-oxopyrrolidin-2-yl)methyl)amino)methyl)-4H-pyrido[1,2-a]pyrimidin-4-one] had an IC50 of 710 nM. Against the preceding molecule, the IC50 is about 3600-fold higher.

`COC(=O)CNCc1c(C)nc2cc(-c3cccc(-c4cccc(-c5ccc(CNC[C@@H]6CCC(=O)N6)c(OC)n5)c4Cl)c3Cl)ccn2c1=O` [Example 269, (S)-Methyl 2-(((8-(2,2′-dichloro-3′-(6-methoxy-5-((((5-oxopyrrolidin-2-yl)methyl)amino)methyl)pyridin-2-yl)-[1,1′-biphenyl]-3-yl)-2-methyl-4-oxo-4H-pyrido[1,2-a]pyrimidin-3-yl)methyl)amino)acetate]: the IC50 was found to be 1 nM.

With `COc1nc(-c2cccc(-c3cccc(-c4ccn5c(=O)c(CNC[C@@H](O)CC(=O)O)cnc5c4)c3Cl)c2Cl)cc(F)c1CNC[C@@H]1CCC(=O)N1` [Example 270, (3S)-4-[[8-[2-Chloro-3-[2-chloro-3-[4-fluoro-6-methoxy-5-[[[(2S)-5-oxopyrrolidin-2-yl]methylamino]methyl]-2-pyridyl]phenyl]phenyl]-4-oxo-pyrido[1,2-a]pyrimidin-3-yl]methylamino]-3-hydroxy-butanoic acid], the concentration for half-maximal inhibition (IC50) stood at 0.1 nM.

`COC(=O)C[C@H](O)CNCc1cnc2cc(-c3cccc(-c4cccc(-c5cc(F)c(CNC[C@@H]6CCC(=O)N6)c(OC)n5)c4Cl)c3Cl)ccn2c1=O` [Example 271, Methyl (3S)-4-[[8-[2-chloro-3-[2-chloro-3-[4-fluoro-6-methoxy-5-[[[(2S)-5-oxopyrrolidin-2-yl]methylamino]methyl]-2-pyridyl]phenyl]phenyl]-4-oxo-pyrido[1,2-a]pyrimidin-3-yl]methylamino]-3-hydroxy-butanoate] yielded a concentration for half-maximal inhibition (IC50) of 0.1 nM.

Molecule `COc1nc(-c2cccc(-c3cccc(-c4ccn5c(=O)c(CNC[C@H](C)O)cnc5c4)c3Cl)c2Cl)cc(F)c1CNC[C@@H]1CCC(=O)N1` [Example 272, 8-[2-Chloro-3-[2-chloro-3-[4-fluoro-6-methoxy-5-[[[(2S)-5-oxopyrrolidin-2-yl]methylamino]methyl]-2-pyridyl]phenyl]phenyl]-3-[[[(2S)-2-hydroxypropyl]amino]methyl]pyrido[1,2-a]pyrimidin-4-one] displayed an IC50 of 0.2 nM. This IC50 is about 2-fold higher than that of the molecule before.

Molecule `COc1nc(-c2cccc(-c3cccc(-c4ccn5c(=O)c(CNCC(C)(C)CO)cnc5c4)c3Cl)c2Cl)ccc1CNC[C@@H]1CCC(=O)N1` [Example 273, (S)-8-(2,2′-dichloro-3′-(6-methoxy-5-((((5-oxopyrrolidin-2-yl)methyl)amino)methyl)pyridin-2-yl)-[1,1′-biphenyl]-3-yl)-3-(((3-hydroxy-2,2-dimethylpropyl)amino)methyl)-4H-pyrido[1,2-a]pyrimidin-4-one] returned an IC50 of 4.2 nM.

`COc1nc(-c2cccc(-c3cccc(-c4ccn5c(=O)c(CNC[C@@H](O)CC(N)=O)cnc5c4)c3Cl)c2Cl)cc(F)c1CNC[C@@H]1CCC(=O)N1` [Example 275, (3S)-4-[[8-[2-Chloro-3-[2-chloro-3-[4-fluoro-6-methoxy-5-[[[(2S)-5-oxopyrrolidin-2-yl]methylamino]methyl]-2-pyridyl]phenyl]phenyl]-4-oxo-pyrido[1,2-a]pyrimidin-3-yl]methylamino]-3-hydroxy-butanamide] came in with an IC50 of 0.1 nM.

Molecule `CNCCCN(C)Cc1ccc(-c2cccc(-c3cccc(-c4ccn5c(=O)c(CN(C)CCNC)cnc5c4)c3Cl)c2Cl)nc1OC` [Example 276, 8-(2,2′-dichloro-3′-(6-methoxy-5-((methyl(3-(methylamino)propyl)amino)methyl)pyridin-2-yl)-[1,1′-biphenyl]-3-yl)-3-((methyl(2-(methylamino)ethyl)amino)methyl)-4H-pyrido[1,2-a]pyrimidin-4-one] had a half-inhibitory concentration (IC50) of 90 nM.

On to `COc1nc(-c2cccc(-c3cccc(-c4ccn5c(=O)c(CN(C)CCNC(=O)OC(C)(C)C)cnc5c4)c3Cl)c2Cl)ccc1CN(C)CCNC(=O)OC(C)(C)C` [Example 277, tert-butyl (2-(((6-(3′-(3-(((2-((tert-butoxycarbonyl)amino)ethyl)(methyl)amino)methyl)-4-oxo-4H-pyrido[1,2-a]pyrimidin-8-yl)-2,2′-dichloro-[1,1′-biphenyl]-3-yl)-2-methoxypyridin-3-yl)methyl)(methyl)amino)ethyl)carbamate], for which the IC50 was found to be 200 nM.

Molecule `CNCCN(C)Cc1cnc2cc(-c3cccc(-c4cccc(-c5ccc(CNC[C@@H]6CCC(=O)N6)c(OC)n5)c4Cl)c3Cl)ccn2c1=O` [Example 278, (S)-8-(2,2′-dichloro-3′-(6-methoxy-5-((((5-oxopyrrolidin-2-yl)methyl)amino)methyl)pyridin-2-yl)-[1,1′-biphenyl]-3-yl)-3-((methyl(2-(methylamino)ethyl)amino)methyl)-4H-pyrido[1,2-a]pyrimidin-4-one] came in with an IC50 of 0.1 nM. This IC50 lies about 2000-fold lower than the previous one.

Consider `COc1nc(-c2cccc(-c3cccc(-c4ccn5c(=O)c(CN(C)CCN)cnc5c4)c3Cl)c2Cl)ccc1CNC[C@@H]1CCC(=O)N1` [Example 279, (S)-3-(((2-aminoethyl)(methyl)amino)methyl)-8-(2,2′-dichloro-3′-(6-methoxy-5-((((5-oxopyrrolidin-2-yl)methyl)amino)methyl)pyridin-2-yl)-[1,1′-biphenyl]-3-yl)-4H-pyrido[1,2-a]pyrimidin-4-one], for which the 50% inhibitory concentration (IC50) is 0.1 nM.

For the molecule `COc1nc(-c2cccc(-c3cccc(-c4ccn5c(=O)c(CN(C)CCO)cnc5c4)c3Cl)c2Cl)ccc1CNC[C@@H]1CCC(=O)N1` [Example 281, (S)-8-(2,2′-Dichloro-3′-(6-methoxy-5-((((5-oxopyrrolidin-2-yl)methyl)-amino)-methyl)pyridin-2-yl)-[1,1′-biphenyl]-3-yl)-3-(((2-hydroxyethyl)(methyl)amino)methyl)-4H-pyrido[1,2-a]-pyrimidin-4-one], it took 0.1 nM to reach half-maximal inhibition (IC50).

As to `COc1nc(-c2cccc(-c3cccc(-c4ccn5ncc(CNC[C@@H]6CCC(=O)N6)c5n4)c3Cl)c2Cl)ccc1CNC[C@@H]1CCC(=O)N1` [Example 282, (S)-5-((((6-(2,2′-Dichloro-3′-(3-(((((S)-5-oxopyrrolidin-2-yl)-methyl)amino)-methyl)-pyrazolo[1,5-a]pyrimidin-5-yl)-[1,1′-biphenyl]-3-yl)-2-methoxypyridin-3-yl)methyl)-amino)methyl)-pyrrolidin-2-one], the IC50 stood at 8.7 nM.

As for `COc1nc(-c2cccc(-c3cccc(-c4ccn5c(=O)c(CNC[C@@H]6CCC(=O)N6)cnc5c4)c3Cl)c2Cl)ccc1C1(CN)CC1` [Example 283, (S)-8-(3′-(5-(1-(Aminomethyl)cyclopropyl)-6-methoxypyridin-2-yl)-2,2′-dichloro-[1,1′-biphenyl]-3-yl)-3-((((5-oxopyrrolidin-2-yl)methyl)amino)methyl)-4H-pyrido[1,2-a]pyrimidin-4-one], 150 nM corresponded to half-maximal inhibition (IC50).

In turn, `COc1nc(-c2cccc(-c3cccc(-c4ccn5c(=O)c(CNC[C@H]6CNC(=O)C6)cnc5c4)c3Cl)c2Cl)ccc1CNC[C@@H]1CCC(=O)N1` [Example 284, 8-(2,2′-Dichloro-3′-(6-methoxy-5-(((((S)-5-oxopyrrolidin-2-yl)methyl)-amino)methyl)-pyridin-2-yl)-[1,1′-biphenyl]-3-yl)-3-(((((S)-5-oxopyrrolidin-3-yl)methyl)amino)methyl)-4H-pyrido[1,2-a]pyrimidin-4-one] registered an IC50 of 0.1 nM. This IC50 lies about 1500-fold lower than the previous one.

Consider `COc1nc(-c2cccc(-c3cccc(-c4cc(C)c5nc(CNC[C@@H]6CCC(=O)N6)cc(=O)n5c4)c3Cl)c2Cl)ccc1CNC[C@@H]1CCC(=O)N1` [Example 288, 7-(2,2′-Dichloro-3′-(6-methoxy-5-(((((S)-5-oxopyrrolidin-2-yl)methyl)amino)methyl)pyridin-2-yl)-[1,1′-biphenyl]-3-yl)-9-methyl-2-(((((S)-5-oxopyrrolidin-2-yl)methyl)amino)methyl)-4H-pyrido[1,2-a]pyrimidin-4-one], for which the IC50 turned out to be 56 nM.
